Consider 19 molecules from patent publication US20230040770A1, “HETEROCYCLIC COMPOUND AND USE THEREOF” (TAKEDA PHARMACEUTICAL COMPANY LIMITED, priority 2019, published 2023).

This assay concerns the target T1, human orexin type 2 receptor (Homo sapiens, UniProt O43614).
T1 construct: expressed in transfected cells
T1 sequence (O43614 1-444): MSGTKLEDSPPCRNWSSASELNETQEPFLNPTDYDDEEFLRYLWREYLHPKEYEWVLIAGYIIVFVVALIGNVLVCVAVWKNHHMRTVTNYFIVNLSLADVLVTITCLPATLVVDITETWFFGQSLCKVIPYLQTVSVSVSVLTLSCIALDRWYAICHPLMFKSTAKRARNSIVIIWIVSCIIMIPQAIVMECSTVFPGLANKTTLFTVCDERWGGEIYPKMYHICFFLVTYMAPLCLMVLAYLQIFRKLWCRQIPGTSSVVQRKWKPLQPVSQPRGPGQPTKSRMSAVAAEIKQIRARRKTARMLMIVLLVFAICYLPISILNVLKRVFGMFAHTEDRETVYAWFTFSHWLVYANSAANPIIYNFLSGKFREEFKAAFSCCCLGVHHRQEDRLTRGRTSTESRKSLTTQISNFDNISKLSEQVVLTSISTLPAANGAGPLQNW
Kind of assay: Measurement of orexin type 2 receptor agonist activity (calcium indicator fluorescence, CHO cells forcibly expressing human OX2 receptor). In kind it is cell-based. Particulars: compound at 3 μM; 0% = DMSO, 100% = orexin A (human) 10 nM. From the text:
To obtain a cell clone stably expressing human orexin type 2 receptor, human orexin type 2 receptor cDNA was inserted into pcDNA3.1(+) plasmid vector (Invitrogen), and a plasmid DNA for expression of human orexin type 2 receptor (pcDNA3.1(+)/hOX2R) was cloned. The plasmid DNA was introduced into CHO-dhfr cell by an electroporation method, and human orexin type 2 receptor expressing clone cells were obtained by limiting dilution method by using G418 drug resistance as a selection marker.
CHO cells forcibly expressing human OX2 receptor were seeded in each well of 384 well black transparent bottom plate (BD Falcon) at 7,500 cells/well, and cultured for one day in a 5% CO2 incubator at 37° C. After removal of the medium in the cell plate, assay buffer A containing a calcium indicator (HBSS (Thermo Fisher Scientific), 20 mM HEPES (Thermo Fisher Scientific), 0.1% BSA (Sigma-Aldrich), 2.5 μg/mL Fluo-4 AM (DOJINDO Chemical), 0.08% Pluronic F127 (DOJINDO Chemical), 1.25 mM probenecid (DOJINDO Chemical)) was added at 30 μL/well. The plate was stood for 30 min in a 5% CO2 incubator at 37° C., and further stood at room temperature for 30 min. A test compound prepared by diluting with assay buffer B (HBSS, 20 mM HEPES, 0.1% BSA) was added at 10 μL/well, and the fluorescence value was measured by FDSSμCELL (Hamamatsu Photonics K.K.) every one sec for 1 min, and thereafter every two sec for […]. The activity (%) of the test compound was calculated assuming that variation in the fluorescence value when DMSO was added instead of the test compound was 0%, and variation in the fluorescence value when orexin A (human) (PEPTIDE INSTITUTE, INC.) was added at the final concentration of 10 nM was 100%.
Consider `CC(C)C(=O)N1CC(F)(F)[C@H](NS(C)(=O)=O)[C@@H]1Cc1cccc(-c2cc(F)cc(F)c2)c1` [Example 35, N-[(2S,3R)-2-[(3′,5′-difluoro[1,1′-biphenyl]-3-yl)methyl]-4,4-difluoro-1-(2-methylpropanoyl)pyrrolidin-3-yl]methanesulfonamide], for which the “OX2R agonist activity (3 μM, %)” value came to 96%. The figure for `CC(C)(O)C(=O)N1CC(F)(F)[C@H](NS(C)(=O)=O)[C@@H]1Cc1cccc(-c2cccc(Cl)c2)c1F` [Example 44, N-[(2S,3R)-2-[(3′-chloro-2-fluoro[1,1′-biphenyl]-3-yl)methyl]-4,4-difluoro-1-(2-hydroxy-2-methylpropanoyl)pyrrolidin-3-yl]methanesulfonamide] is 98%; for `CCS(=O)(=O)N[C@@H]1[C@H](Cc2cccc(-c3ccccc3)c2F)N(C(=O)C2CCO2)CC1(F)F` (stereo partly drawn) [Example 45, N-[(2S,3R)-4,4-difluoro-2-[(2-fluoro[1,1′-biphenyl]-3-yl)methyl]-1-(oxetane-2-carbonyl)pyrrolidin-3-yl]ethanesulfonamide] it is 98%; for `CCS(=O)(=O)N[C@@H]1[C@H](Cc2cccc(-c3ccccc3)c2F)N(C(=O)C2CCO2)CC1(F)F` (stereo partly drawn) [Example 46, N-[(2S,3R)-4,4-difluoro-2-[(2-fluoro[1,1′-biphenyl]-3-yl)methyl]-1-(oxetane-2-carbonyl)pyrrolidin-3-yl]ethanesulfonamide] it is 102%. Turning to `CCS(=O)(=O)N[C@@H]1[C@H](Cc2cccc(-c3ccccc3)c2)N(C(=O)C2CCO2)CC1(F)F` (stereo partly drawn) [Example 50, N-[(2S,3R)-2-[([1,1′-biphenyl]-3-yl)methyl]-4,4-difluoro-1-(oxetane-2-carbonyl)pyrrolidin-3-yl]ethanesulfonamide], the “OX2R agonist activity (3 μM, %)” value is recorded as 99%. The figure for `CCS(=O)(=O)N[C@@H]1[C@H](Cc2cccc(-c3ccccc3)c2)N(C(=O)C2CCO2)CC1(F)F` (stereo partly drawn) [Example 51, N-[(2S,3R)-2-[([1,1′-biphenyl]-3-yl)methyl]-4,4-difluoro-1-(oxetane-2-carbonyl)pyrrolidin-3-yl]ethanesulfonamide] is 99%; for `CCS(=O)(=O)N[C@@H]1[C@H](Cc2cccc(-c3cccc(F)c3)c2)N(C(=O)C2CCO2)CC1(F)F` (stereo partly drawn) [Example 52, N-[(2S,3R)-4,4-difluoro-2-[(3′-fluoro[1,1′-biphenyl]-3-yl)methyl]-1-(oxetane-2-carbonyl)pyrrolidin-3-yl]ethanesulfonamide] it is 100%. For `CCS(=O)(=O)N[C@@H]1[C@H](Cc2cccc(-c3cccc(C)c3F)c2F)N(C(=O)C(C)(C)O)CC1(F)F` [Example 65, N-[(2S,3R)-2-[(2,2′-difluoro-3′-methyl[1,1′-biphenyl]-3-yl)methyl]-4,4-difluoro-1-(2-hydroxy-2-methylpropanoyl)pyrrolidin-3-yl]ethanesulfonamide], the “OX2R agonist activity (3 μM, %)” value came to 100%.

As for `CCS(=O)(=O)N[C@@H]1[C@H](Cc2cccc(-c3cccc(Cl)c3)c2F)N(C(=O)C(C)(C)O)CC1(F)F` [Example 68, N-[(2S,3R)-2-[(3′-chloro-2-fluoro[1,1′-biphenyl]-3-yl)methyl]-4,4-difluoro-1-(2-hydroxy-2-methylpropanoyl)pyrrolidin-3-yl]ethanesulfonamide], the “OX2R agonist activity (3 μM, %)” value was 106%. Under `CS(=O)(=O)N[C@@H]1[C@H](Cc2cccc(-c3ccccc3)c2F)N(C(=O)[C@H]2CCCO2)CC1(F)F` [Example 73, N-{(2S,3R)-4,4-difluoro-2-[(2-fluoro[1,1′-biphenyl]-3-yl)methyl]-1-[(2R)-oxolane-2-carbonyl]pyrrolidin-3-yl}methanesulfonamide] stands 104%; under `CS(=O)(=O)N[C@@H]1[C@H](Cc2cccc(-c3ccccc3)c2F)N(C(=O)C2(O)CCC2)CC1(F)F` [Example 76, N-[(2S,3R)-4,4-difluoro-2-[(2-fluoro[1,1′-biphenyl]-3-yl)methyl]-1-(1-hydroxycyclobutane-1-carbonyl)pyrrolidin-3-yl]methanesulfonamide], 98%; under `CC(C)C(=O)N1CC(F)(F)[C@H](NS(C)(=O)=O)[C@@H]1Cc1cccc(-c2ccccc2)c1F` [Example 77, N-[(2S,3R)-4,4-difluoro-2-[(2-fluoro[1,1′-biphenyl]-3-yl)methyl]-1-(2-methylpropanoyl)pyrrolidin-3-yl]methanesulfonamide], 95%. For `CS(=O)(=O)N[C@@H]1[C@H](Cc2cccc(-c3ccccc3)c2F)N(C(=O)C23CC(C2)C3)CC1(F)F` [Example 78, N-{(2S,3R)-1-(bicyclo[1.1.1]pentane-1-carbonyl)-4,4-difluoro-2-[(2-fluoro[1,1′-biphenyl]-3-yl)methyl]pyrrolidin-3-yl}methanesulfonamide], the “OX2R agonist activity (3 μM, %)” value was 93%. On to `CS(=O)(=O)N[C@@H]1[C@H](Cc2cccc(-c3ccccc3)c2F)N(C(=O)C2CCO2)CC1(F)F` (stereo partly drawn) [Example 79, N-[(2S,3R)-4,4-difluoro-2-[(2-fluoro[1,1′-biphenyl]-3-yl)methyl]-1-(oxetane-2-carbonyl)pyrrolidin-3-yl]methanesulfonamide], for which the “OX2R agonist activity (3 μM, %)” value is 102%. Under `CS(=O)(=O)N[C@@H]1[C@H](Cc2cccc(-c3cccc(F)c3)c2F)N(C(=O)[C@H]2CCO2)CC1(F)F` [Example 81, N-[(2S,3R)-2-[(2,3′-difluoro[1,1′-biphenyl]-3-yl)methyl]-4,4-difluoro-1-((2R)-oxetane-2-carbonyl)pyrrolidin-3-yl]methanesulfonamide] stands 95%; under `CCS(=O)(=O)N[C@@H]1[C@H](Cc2cccc(-c3cccc(F)c3)c2)N(C(=O)[C@H]2CCCO2)CC1(F)F` [Example 88, N-{(2S,3R)-4,4-difluoro-2-[(3′-fluoro[1,1′-biphenyl]-3-yl)methyl]-1-[(2R)-oxolane-2-carbonyl]pyrrolidin-3-yl}ethanesulfonamide], 98%; under `CS(=O)(=O)N[C@@H]1[C@H](Cc2cccc(-c3cc(F)cc(F)c3)c2F)N(C(=O)[C@@H]2CCO2)CC1(F)F` [Example 92, N-{(2S,3R)-4,4-difluoro-1-((2S)-oxetane-2-carbonyl)-2-[(2,3′,5′-trifluoro[1,1′-biphenyl]-3-yl)methyl]pyrrolidin-3-yl}methanesulfonamide], 99%. The figure for `CCS(=O)(=O)N[C@@H]1[C@H](Cc2cccc(-c3cccc(F)c3)c2F)N(C(=O)C23CC(C2)C3)CC1(F)F` [Example 93, N-{(2S,3R)-1-(bicyclo[1.1.1]pentane-1-carbonyl)-2-[(2,3′-difluoro[1,1′-biphenyl]-3-yl)methyl]-4,4-difluoropyrrolidin-3-yl}ethanesulfonamide] is 98%; for `CCS(=O)(=O)N[C@@H]1[C@H](Cc2cccc(-c3cccc(F)c3)c2)N(C(=O)C(C)C)CC1(F)F` [Example 97, N-[(2S,3R)-4,4-difluoro-2-[(3′-fluoro[1,1′-biphenyl]-3-yl)methyl]-1-(2-methylpropanoyl)pyrrolidin-3-yl]ethanesulfonamide] it is 90%.
